Key:
Format in all cases: in vivo
Scirpus juncoides [1] = test: Test Example 1: herbicidal effect test by soil application in paddy rice; settings: 120 g active ingredient per 10 ares, applied immediately after sowing, flooded pots, 14 days after application; for pest or weed control at 1200 g/ha: Schoenoplectiella juncoides, soil, 336 h, read-out: weed inhibition rate
Outline: (§1)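 Soil-applied test under flooded paddy conditions (~3 cm water) in a glass greenhouse. Seeds were sown shallow (0–1 cm, 30 per species), then compound was dripped in as diluted emulsifiable concentrate at 120 g a.i./10 a.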

[2] = system: Echinochloa crus-galli var. formosensis; test: as above; settings: 120 g active ingredient per 10 ares, applied immediately after sowing, flooded pots, 14 days after application; for pest or weed control at 1200 g/ha: Echinochloa crus-galli, soil, 336 h, read-out: weed inhibition rate
Outline: as §1

[3] = system: Echinochloa crus-galli var. formosensis; test: Test Example 5: herbicidal effect test by soil application in paddy rice (low dose); settings: Echinochloa crus-galli, soil, 336 h; 7.5 g per 10 ares; applied immediately after sowing, flooded pots; 14 days after application; read-out: weed inhibition rate
Outline: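 Paddy-soil pots, weeds sown 0–1 cm deep and flooded to about 3 cm in a greenhouse. Emulsifiable concentrate diluted in water and dropped in right after sowing at 7.5 g active ingredient per 10 ares. Duplicates; effect scored 14 days after application.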

Digitaria ciliaris [4] = test: Test Example 7: herbicidal effect test by soil application in upland field (low dose); settings: Digitaria ciliaris, 7.5 g per 10 ares, sprayed one day after sowing, 14 days after application, read-out: weed inhibition rate
Outline: (§2)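 Upland alluvial loam pots, seeds mixed into top 1 cm of soil; one day after sowing, diluted emulsifiable concentrate sprayed on soil at 100 L/10 a, giving 7.5 g active ingredient/10 a. Duplicate pots; weed inhibition rate (%) scored 14 days after application.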

Echinochloa crus-galli = test: as above; settings: Echinochloa crus-galli, 7.5 g per 10 ares, sprayed one day after sowing, 14 days after application, read-out: weed inhibition rate
Outline: as §2

Digitaria ciliaris [5] = test: Test Example 8: herbicidal effect test by stem and leaf treatment in upland field (low dose); settings: Digitaria ciliaris; 7.5 g per 10 ares; sprayed seven days after sowing, upland soil; 14 days after application; read-out: weed inhibition rate
Monochoria vaginalis [6] = test: Test Example 6: herbicidal effect test by application during growth period of paddy rice (low dose); settings: Pontederia vaginalis; 7.5 g per 10 ares; applied seven days after sowing, flooded pots; 14 days after application; read-out: weed inhibition rate
Outline: (§3)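 Low-dose water application, 7.5 g a.i. per 10 ares, given by dropper into flooded pots (about 3 cm depth) 7 days after sowing of 30 weed seeds each at 0–1 cm. Evaluation of inhibition (%) took place 14 days later, duplicate per rate.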

Scirpus juncoides [7] = test: as above; settings: Schoenoplectiella juncoides; 7.5 g per 10 ares; applied seven days after sowing, flooded pots; 14 days after application; read-out: weed inhibition rate
Outline: as §3

Monochoria vaginalis [8] = test: Test Example 1: herbicidal effect test by soil application in paddy rice; settings: 120 g active ingredient per 10 ares, applied immediately after sowing, flooded pots, 14 days after application; for pest or weed control at 1200 g/ha: Pontederia vaginalis, soil, 336 h, read-out: weed inhibition rate
Outline: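 Pre-emergence test in puddled, flooded paddy soil (about 3 cm water), 30 seeds per weed sown at 0–1 cm depth in a glass greenhouse. Emulsifiable concentrate diluted in water and dropped onto the pots straight after sowing at 120 g a.i. per 10 ares. Weed inhibition (%) scored at 14 days, in duplicate.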

Amaranthus viridis = test: Test Example 3: herbicidal effect test by soil application in upland field; settings: Amaranthus viridis, 120 g per 10 ares, sprayed one day after sowing, 14 days after application, read-out: weed inhibition rate
Outline: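 Pre-emergence test: seeds mixed into top 1 cm of alluvial loam upland soil in pots; emulsifiable concentrate diluted in water sprayed on soil one day after sowing at 100 L/10 a, 120 g a.i./10 a. Weed inhibition rate (%) scored at 14 days, in duplicate.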

CC(C)[C@]12C[C@@H](OCc3ccccc3)[C@](C)(C[C@@H]1Br)O2 [1-15, (1S,2R,4R,5S)-5-bromo-1-methyl-2-phenylmethoxy-4-isopropyl-7-oxabicyclo[2.2.1]heptane]
≥ 80%: pest or weed control at 1200 g/ha (Scirpus juncoides [1]) | pest or weed control at 1200 g/ha [2] | inhibition at 75 g/ha [3] | inhibition at 75 g/ha (Digitaria ciliaris [4]) | inhibition at 75 g/ha (Echinochloa crus-galli) | inhibition at 75 g/ha (Digitaria ciliaris [5]) | inhibition at 75 g/ha (Monochoria vaginalis [6]) | inhibition at 75 g/ha (Scirpus juncoides [7]) | pest or weed control at 1200 g/ha (Monochoria vaginalis [8])

CC(C)[C@]12C[C@@H](OCc3c(F)cccc3F)[C@](C)(C[C@@H]1Br)O2 [1-21, (1S,2R,4R,5S)-5-bromo-2-[(2,6-difluorophenyl)methoxy]-1-methyl-4-isopropyl-7-oxabicyclo[2.2.1]heptane]
≥ 80%: pest or weed control at 1200 g/ha (Scirpus juncoides [1]) | pest or weed control at 1200 g/ha [2] | inhibition at 75 g/ha [3] | inhibition at 75 g/ha (Digitaria ciliaris [4]) | inhibition at 75 g/ha (Echinochloa crus-galli) | inhibition at 75 g/ha (Digitaria ciliaris [5]) | inhibition at 75 g/ha (Monochoria vaginalis [6]) | inhibition at 75 g/ha (Scirpus juncoides [7]) | pest or weed control at 1200 g/ha (Monochoria vaginalis [8])

Cc1ccccc1CO[C@@H]1C[C@]2(C(C)C)O[C@@]1(C)C[C@@H]2O [1-24, (1R,2S,4S,5R)-1-isopropyl-4-methyl-5-((2-methylbenzyl)oxy)-7-oxabicyclo[2.2.1]heptan-2-ol]
≥ 80%: pest or weed control at 1200 g/ha (Scirpus juncoides [1]) | pest or weed control at 1200 g/ha [2] | inhibition at 75 g/ha [3] | inhibition at 75 g/ha (Digitaria ciliaris [4]) | inhibition at 75 g/ha (Echinochloa crus-galli) | inhibition at 75 g/ha (Digitaria ciliaris [5]) | inhibition at 75 g/ha (Monochoria vaginalis [6]) | inhibition at 75 g/ha (Scirpus juncoides [7]) | pest or weed control at 1200 g/ha (Monochoria vaginalis [8])

CO[C@H]1C[C@]2(C)O[C@@]1(C(C)C)C[C@H]2OCc1ccccc1C [1-151, (1 S,2R,4R,5S)-4-isopropyl-5-methoxy-l-methyl-2-((2-methylbenzyl)oxy)-7-oxabicyclo[2.2.1]heptane]
≥ 80%: weed inhibition rate (Scirpus juncoides [1]) | weed inhibition rate [2] | inhibition at 75 g/ha [3] | inhibition at 75 g/ha (Digitaria ciliaris [4]) | inhibition at 75 g/ha (Echinochloa crus-galli) | inhibition at 75 g/ha (Digitaria ciliaris [5]) | inhibition at 75 g/ha (Scirpus juncoides [7])

CCO[C@H]1C[C@]2(C)O[C@@]1(C(C)C)C[C@H]2OCc1ccccc1F [1-183, (1S,2R,4R,5S)-5-ethoxy-2-[(2-fluorophenyl)methoxy]-1-methyl-4-isopropyl-7-oxabicyclo[2.2.1]heptane]
≥ 80%: pest or weed control at 1200 g/ha (Scirpus juncoides [1]) | pest or weed control at 1200 g/ha [2] | inhibition at 75 g/ha [3] | inhibition at 75 g/ha (Digitaria ciliaris [4]) | inhibition at 75 g/ha (Echinochloa crus-galli) | inhibition at 75 g/ha (Digitaria ciliaris [5]) | inhibition at 75 g/ha (Monochoria vaginalis [6]) | inhibition at 75 g/ha (Scirpus juncoides [7]) | pest or weed control at 1200 g/ha (Monochoria vaginalis [8])

Cc1ccc(CO[C@@H]2C[C@]3(C(C)C)O[C@@]2(C)C[C@@H]3Br)cc1 [1-681, (1S,2R,4R,5S)-5-bromo-1-methyl-2-[(4-methylphenyl)methoxy]-4-isopropyl-7-oxabicyclo[2.2.1]heptane]
≥ 80%: pest or weed control at 1200 g/ha (Scirpus juncoides [1]) | pest or weed control at 1200 g/ha [2] | inhibition at 75 g/ha [3] | inhibition at 75 g/ha (Echinochloa crus-galli) | inhibition at 75 g/ha (Digitaria ciliaris [5]) | inhibition at 75 g/ha (Monochoria vaginalis [6]) | inhibition at 75 g/ha (Scirpus juncoides [7]) | pest or weed control at 1200 g/ha (Monochoria vaginalis [8])

CC(C)[C@]12C[C@@H](OCc3ccc(F)cc3)[C@](C)(C[C@@H]1Br)O2 [1-691, (1S,2R,4R,5S)-5-bromo-2-[(4-fluorophenyl)methoxy]-1-methyl-4-isopropyl-7-oxabicyclo[2.2.1]heptane]
≥ 80%: pest or weed control at 1200 g/ha (Scirpus juncoides [1]) | pest or weed control at 1200 g/ha [2] | inhibition at 75 g/ha [3] | inhibition at 75 g/ha (Digitaria ciliaris [4]) | inhibition at 75 g/ha (Echinochloa crus-galli) | inhibition at 75 g/ha (Digitaria ciliaris [5]) | inhibition at 75 g/ha (Monochoria vaginalis [6]) | inhibition at 75 g/ha (Scirpus juncoides [7]) | pest or weed control at 1200 g/ha (Monochoria vaginalis [8])

CC(C)[C@]12C[C@@H](OCc3ccccc3Br)[C@](C)(C[C@@H]1Br)O2 [1-694, (1S,2R,4R,5S)-5-bromo-2-[(2-bromophenyl)methoxy]-1-methyl-4-isopropyl-7-oxabicyclo[2.2.1]heptane]
≥ 80%: pest or weed control at 1200 g/ha [2] | inhibition at 75 g/ha [3] | inhibition at 75 g/ha (Digitaria ciliaris [4]) | inhibition at 75 g/ha (Echinochloa crus-galli) | inhibition at 75 g/ha (Monochoria vaginalis [6]) | pest or weed control at 1200 g/ha (Monochoria vaginalis [8]) | inhibition at 1200 g/ha (Amaranthus viridis)

CC(C)[C@]12C[C@@H](OCc3ccsc3)[C@](C)(C[C@@H]1Br)O2 [1-722, (1S,2R,4R,5S)-5-bromo-1-methyl-4-isopropyl-2-(thiophen-3-ylmethoxy)-7-oxabicyclo[2.2.1]heptane]
≥ 80%: pest or weed control at 1200 g/ha (Scirpus juncoides [1]) | pest or weed control at 1200 g/ha [2] | inhibition at 75 g/ha [3] | inhibition at 75 g/ha (Digitaria ciliaris [4]) | inhibition at 75 g/ha (Echinochloa crus-galli) | inhibition at 75 g/ha (Monochoria vaginalis [6]) | inhibition at 75 g/ha (Scirpus juncoides [7]) | pest or weed control at 1200 g/ha (Monochoria vaginalis [8])

CC(C)[C@]12C[C@@H](OCc3ccccc3F)[C@](C)(C[C@@H]1I)O2 [1-753, (1S,2R,4R,SS)-2-[(2-fluorophenyl)methoxy]-5-iodo-1-methyl-4-isopropyl-7-oxabicyclo[2.2.1]heptane]
≥ 80%: weed inhibition rate (Scirpus juncoides [1]) | weed inhibition rate [2] | inhibition at 75 g/ha [3] | inhibition at 75 g/ha (Digitaria ciliaris [4]) | inhibition at 75 g/ha (Echinochloa crus-galli) | inhibition at 75 g/ha (Monochoria vaginalis [6]) | weed inhibition rate (Monochoria vaginalis [8]) | inhibition at 1200 g/ha (Amaranthus viridis)

CC(C)C12CC(OCc3ccccc3F)C(C)(CC1Br)O2 (stereo not drawn) [1-1355, 5-bromo-2-[(2-fluorophenyl)methoxy]-1-methyl-4-isopropyl-7-oxabicyclo[2.2.1]heptane]
≥ 80%: pest or weed control at 1200 g/ha (Scirpus juncoides [1]) | pest or weed control at 1200 g/ha [2] | inhibition at 75 g/ha [3] | inhibition at 75 g/ha (Digitaria ciliaris [4]) | inhibition at 75 g/ha (Echinochloa crus-galli) | inhibition at 75 g/ha (Digitaria ciliaris [5]) | inhibition at 75 g/ha (Monochoria vaginalis [6]) | inhibition at 75 g/ha (Scirpus juncoides [7]) | pest or weed control at 1200 g/ha (Monochoria vaginalis [8])

C=CCO[C@H]1C[C@]2(C)O[C@@]1(C(C)C)C[C@H]2OCc1ccccc1F [1-1602, (1S,2R,4R,5S)-2-[(2-fluorophenyl)methoxy]-1-methyl-4-isopropyl-5-prop-2-enoxy-7-oxabicyclo[2.2.1]heptane]
≥ 80%: pest or weed control at 1200 g/ha (Scirpus juncoides [1]) | pest or weed control at 1200 g/ha [2] | inhibition at 75 g/ha [3] | inhibition at 75 g/ha (Digitaria ciliaris [4]) | inhibition at 75 g/ha (Echinochloa crus-galli) | inhibition at 75 g/ha (Digitaria ciliaris [5]) | inhibition at 75 g/ha (Monochoria vaginalis [6]) | inhibition at 75 g/ha (Scirpus juncoides [7])

CC(C)[C@]12C[C@@H](OCc3ccccc3F)[C@](C)(C/C1=N\O)O2 [2-197, (1R,4S,5R,E)-5-((2-fluorobenzyl)oxy)-1-isopropyl-4-methyl-7-oxabicyclo[2.2.1]heptan-2-one oxime]
≥ 80%: pest or weed control at 1200 g/ha (Scirpus juncoides [1]) | pest or weed control at 1200 g/ha [2] | inhibition at 75 g/ha [3] | inhibition at 75 g/ha (Digitaria ciliaris [4]) | inhibition at 75 g/ha (Echinochloa crus-galli) | inhibition at 75 g/ha (Digitaria ciliaris [5]) | inhibition at 75 g/ha (Monochoria vaginalis [6]) | pest or weed control at 1200 g/ha (Monochoria vaginalis [8]) | inhibition at 1200 g/ha (Amaranthus viridis)

Cc1cccc(F)c1CO[C@@H]1C[C@]2(C(C)C)O[C@@]1(C)CC2=O [2-353, (1R,4S,5R)-5-((2-fluoro-6-methylbenzyl)oxy)-1-isopropyl-4-methyl-7-oxabicyclo[2.2.1]heptan-2-one]
≥ 80%: pest or weed control at 1200 g/ha (Scirpus juncoides [1]) | pest or weed control at 1200 g/ha [2] | inhibition at 75 g/ha [3] | inhibition at 75 g/ha (Digitaria ciliaris [4]) | inhibition at 75 g/ha (Echinochloa crus-galli) | inhibition at 75 g/ha (Digitaria ciliaris [5]) | inhibition at 75 g/ha (Monochoria vaginalis [6]) | inhibition at 75 g/ha (Scirpus juncoides [7]) | pest or weed control at 1200 g/ha (Monochoria vaginalis [8])

CC(C)[C@]12C=C[C@](C)(O1)[C@H](OCc1c(F)cccc1F)C2 [3-7, (1R,4S,5R)-5-[(2,6-difluorophenyl)methoxy]-4-methyl-1-isopropyl-7-oxabicyclo[2.2.1]hept-2-ene]
≥ 80%: pest or weed control at 1200 g/ha (Scirpus juncoides [1]) | pest or weed control at 1200 g/ha [2] | inhibition at 75 g/ha [3] | inhibition at 75 g/ha (Digitaria ciliaris [4]) | inhibition at 75 g/ha (Echinochloa crus-galli) | inhibition at 75 g/ha (Digitaria ciliaris [5]) | inhibition at 75 g/ha (Scirpus juncoides [7]) | pest or weed control at 1200 g/ha (Monochoria vaginalis [8])

— patent publication EP4707280A1, “1,4-CINEOLE DERIVATIVE AND INTERMEDIATE THEREOF, HERBICIDE CONTAINING SAID DERIVATIVE AS ACTIVE INGREDIENT, METHOD FOR USING HERBICIDE, AND METHOD FOR PREPARING AGROCHEMICAL COMPOSITION” (HOKKO CHEMICAL INDUSTRY CO., LTD., priority 2023, dated 2024)
